A word on the ED50: it is the dose at which the effect has come halfway, by size or by number of responders. By IC50 is commonly meant the concentration that gives 50% inhibition. In general, EC50 refers to the midpoint of the concentration-response curve.

Where only a bound is given, the exact number is not on record here.

In one data set the test system is Male, C57BL6, mice. The data set is described as follows: Normal Mouse Calcemia Model. The data set is classed as in vivo. How it is done:
Male, C57BL6, mice were obtained from Jackson Laboratories. The mice were habituated for four days while maintained on a normal diet (D10001, Research Diets Inc.). Treatment was initiated with vehicle (20% ethanol/30% propylene glycol/50% water, 0.05 mL, s.c.) or test agent administered over a three log dose range. The animals were dosed once daily for 3 days. Twenty-four hours after the last dose, animals were anesthetized with ketamine/xylazine (100/18 mg/kg) and bled by cardiac puncture for measurement of PTH and other end points.
Measurement of PTH and minerals: Calcium (Ca), serum phosphorus (Pi), creatinine and BUN were measured from serum using an Abbott Aeroset® (Abbott Laboratories, Abbott Park, Ill.). Blood ionized calcium (iCa) was determined using the i-STAT® system (Abbott Laboratories, East Windsor, N.J.). Serum PTH was measured using a mouse parathyroid hormone (PTH) EIA kit obtained from ALPCO/Immutopics, Inc. (Windham, N.H.). Selected data is shown is Table 6. The graphs in FIG. 4 give an indication of dose response. Notable is that Example 1 produced an approximately 30% reduction in PTH over at least a three log dose range without a concomitant elevation of serum calcium of greater than 1 mg/dL.
Data analysis: Mean±standard error of the mean was calculated for each group. One way ANOVA followed by a Dunnett's test was used to assess differences between vehicle and drug-treated groups. *p<0.05=significance.

In data set [1] the test system is Renin mRNA in As4.1 cells. The data set is described as follows: Renin mRNA in As4.1 cells transfected with pcDNA-hVDR (real-time RT-PCR). In kind it is cell-based. Here is the method: As4.1 cells (ATCC, Manassas, Va.) were cultured in Dulbecco's Modified Eagle Medium DMEM (commercially available from Invitrogen, Carlsbad, Calif.) with 10% fetal bovine serum at 37° C. in a humidified 5% CO2-95% air atmosphere. C3;ells were transfected with the pcDNA-hVDR plasmid (provided by Yan Chun Li, University of Chicago) by LIPOFECTAMINE™ 2000 (Invitrogen, Carlsbad, Calif.). siRNA was transfected with the pcDNA-hVDR plasmid by LIPOFECTAMINE™ 2000 according to the manufacturer's protocol. Twenty-four hours after transfection, cells were treated with test agents.
Real-time reverse transcription-PCR was performed with a MyiQ Real-time PCR Detection System (commercially available from BioRad, Hercules, Calif.). […] TaqMan™ probes that were 5′ labeled with the reporter 6-carboxyfluorescein (FAM) and 3′ labeled with the quencher tetramethylrhodamine (TAMRA) were used and the primer and probe sets were obtained from Applied Biosystems (Foster City, Calif.). Temperature conditions consisted of a step of 5 minutes at 95° C., followed by 45 cycles of 60° C. for 1 minute and 95° C. for 15 seconds. Data was collected during each extension phase of the PCR reaction and analyzed with the accompanying software package (BioRad, Hercules, Calif.). Threshold cycles were determined for each gene.
In general terms: In qPCR the cycle at which signal appears reflects the starting amount.

For a further data set, the system named is 5/6 NX rats. As to the kind of experiment: Study 1: serum PTH, ionized Ca++, total Ca++ and phosphorus in the 5/6 NX rat model. In kind it is in vivo. The following applies: for decrease in PTH: Day 0 vs. Day 13. Here is the method:
Study 1: The purpose of the study was to compare the effects of Example 1 on serum PTH, ionized Ca++, total Ca++ and phosphorus in the 5/6 NX rat model.
Methods: 5/6 NX rats were fed a normal diet (Teklad 8640; 0.9% Phos. and 1.1% Ca++) for 4 weeks prior to study at 6 weeks uremia, and were maintained on this diet for the duration of the study. 5/6 NX rats were treated with vehicle and 10, 30 or 100 μg/kg of A-Example 1. Rats were dosed i.p. 3×/week for 2 weeks. Blood was collected on Days 0 and 13 for determination of concentrations of PTH, ionized Ca++, total Ca++ and phosphorus.

In data set [2] the test system is Thrombomodulin mRNA in human coronary artery smooth muscle cells (CASMC). As to the kind of experiment: Thrombomodulin mRNA in CASMC. In kind it is cell-based. The following applies: Homo sapiens. How it is done:
(§1) Primary culture of human coronary artery smooth muscle cells (CASMC) (commercially available from Cambrex, Walkersville, Md.) were grown in smooth muscle growth medium SmGM-2 (commercially available from Lonza Bioscience) containing 5.5 mM glucose, 5% FBS, 50 μg/ml gentamicin, 50 ng/ml amphotericin-B, 5 μg/ml insulin, 2 ng/ml human recombinant fibroblast growth factor (hFGF), and 0.5 ng/ml human recombinant epidermal growth factor (hEGF) at 37° C. in a humidified 5% CO2-95% air atmosphere. Cells were grown to >80% confluence and used within five passages.
(§2) Real-time reverse transcription-PCR was performed with a MyiQ Real-Time PCR Detection System (BioRad, Hercules, Calif.). Each sample has a final volume of 25 μl containing 100 ng of cDNA, […] each of the forward and reverse PCR primers and […] of the TaqMan™ probe for the gene of interest (Applied Biosystems, Foster City, Calif.). Temperature conditions consisted of a step of 5 minutes at 95° C., followed by 40 cycles of 60° C. for 1 minute and 95° C. for 15 seconds. Data was collected during each extension phase of the PCR reaction and analyzed with the software package (BioRad, Hercules, Calif.). Threshold cycles were determined for each gene. […]

In data set [3] the target is T1, recombinant full-length human Vitamin D nuclear receptor (Homo sapiens, UniProt P11473).
T1 sequence (P11473 1-427): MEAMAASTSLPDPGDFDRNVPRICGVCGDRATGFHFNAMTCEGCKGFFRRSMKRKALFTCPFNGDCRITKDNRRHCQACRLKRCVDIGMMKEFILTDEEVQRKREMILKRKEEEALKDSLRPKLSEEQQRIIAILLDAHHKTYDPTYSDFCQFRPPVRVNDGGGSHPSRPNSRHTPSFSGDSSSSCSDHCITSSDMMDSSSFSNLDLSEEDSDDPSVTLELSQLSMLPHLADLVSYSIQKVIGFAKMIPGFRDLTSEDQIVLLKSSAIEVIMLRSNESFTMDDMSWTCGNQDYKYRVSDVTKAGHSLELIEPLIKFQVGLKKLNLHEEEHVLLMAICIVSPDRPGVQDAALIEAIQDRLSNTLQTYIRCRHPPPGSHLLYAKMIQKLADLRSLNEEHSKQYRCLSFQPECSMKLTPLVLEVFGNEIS
As to the kind of experiment: biochemical.
Method: In vitro binding of selected compounds according to the invention to VDR was assessed using the following procedure. […] Each test compound was then serially diluted in binding buffer to concentrations appropriate for the assay, as one skilled in the art can determine.
Final assay volume was 100 uL. The filled plate was incubated overnight at 4° C. with gentle shaking. After 18 hours of incubation, 20 uL of wheat germ agglutinin-coated yttrium silicate scintillation proximity assay (SPA) beads (commercially available from Amersham Biosciences, Piscataway, N.J.; Part # RPNQ0270) resuspended in binding buffer was added to each well (200 ug/well) and the plate was incubated at room temperature for 2 hours with gentle shaking.

Data set [4] has as its system Thrombospondin mRNA in human coronary artery smooth muscle cells (CASMC). As to the kind of experiment: Thrombospondin mRNA in CASMC. In kind it is cell-based. The following applies: Homo sapiens. Here is the method: as §1, §2
[5] abbreviates: over at least a three log dose range.
The mark [6] stands for this setting: 5/6 NX rats, 100 μg/kg i.p. 3×/week for 2 weeks.

Regarding `C=C1[C@H](O)CC(=C/C=C2\CCC[C@]3(C)[C@@H]([C@H](C)COC(=O)C(C)(C)C)CC[C@@H]23)C[C@H]1O` [Example 1, (2S)-2-[(1R,3R,7E, 17β)-1,3-dihydroxy-2-methylene-9,10-secoestra-5,7-dien-17-yl]propyl pivalate], the “concomitant elevation of serum calcium” value in the data set on Male, C57BL6, mice (setting [5]) is given as at most 1 mg/dL. Moreover, the “reduction in PTH” value with Male, C57BL6, mice (setting [5]) is recorded as “approximately 30%”. Moreover, in the data set on Male, C57BL6, mice (s.c. once daily for 3 days, dose giving 1 mg/dL change in total Ca), the “1 mg/dL Δ total Ca” value was over 100 µg/kg. For the same compound, the ED50 with Male, C57BL6, mice (sc, 72 h, s.c. once daily for 3 days, read-out: PTH ED50) is 0.0105 mg/kg. Further, the half-inhibitory concentration (IC50) in data set [1] worked out at 0.3 nM; in data set [3], 496 nM; in data set [4] it was 4 pM. The “decrease in PTH” value with 5/6 NX rats (5/6 NX rats, 30 μg/kg i.p. 3×/week for 2 weeks) came to 26%; with 5/6 NX rats (setting [6]) it was 78%. For the same compound, the “ionized Ca++” value with 5/6 NX rats (setting [6]) was “elevated”. Further, the “total Ca++” value in the data set with 5/6 NX rats (setting [6]) was “elevated”. Further, the serum phosphorus levels result in the data set with 5/6 NX rats (5/6 NX rats, 10, 30 or 100 μg/kg i.p. 3×/week for 2 weeks) was “did not affect”. Also, in data set [2], a half-maximal effect (EC50) was put at 2.2 nM.
